The values below come from patent publication US20250289842A1, “Processes for Making NAG-25, a Carbohydrate Targeting Moiety, and its Intermediates” (AMGEN INC., priority 2022, published 2025).

A short description of this data set: High Throughput Experimentation (HTE) solubility screen, solvent/heptane mixtures for crystallization. The format is physicochemical. Particulars: 20° C., 2-MeTHF. Here is the method:
A High Throughput Experimentation (HTE) solubility screen was conducted to determine the solvent/anti-solvent combination for the crystallization and align the reaction solvent with the crystallization solvent. Solubility studies of t-Butyl Core at 20° C. were conducted for various percentages of heptane. […] The solubility screen pointed to MTBE/heptane being one example of a useful solvent mixture for crystallization because of its gradual solubility curve.

Regarding `CC(C)(C)OC(=O)CC[C@H](NC(=O)CC[C@H](NC(=O)OCc1ccccc1)C(=O)OC(C)(C)C)C(=O)OC(C)(C)C` [t-Butyl Core], the “solubility of t-Butyl Core” value is, setting by setting: (MIBK or IPAc with 80% heptane) 50 mg/mL; (MIBK or IPAc with 90% heptane) 10 mg/mL.
